Holding throughout (format): cell-based
In series [1] the test system is IL-8. The experiment in a line: IL-8 secretion by the HT29 cell line co-incubated with bacteria (ELISA). The conditions noted are these: differentiated HT29 cells, bacteria 10^7 CFU 2 hr, with THP1 conditioned media or alone. The procedure:
HT29 cells were plated in 12 well plates at a density of 200,000 cells/well. Cells were being differentiated for 10 days (media change every 2 days). The day of the experiment cells were placed in the anaerobic hood and washed with anaerobic equilibrated HANKs solution. Then 900 ul of growth media (without FBS and antibiotics) was added to the cells. Bacteria cells were resuspended in of growth media (without FBS and antibiotics) and were then added at 10^7 CFU in total in 100 ul. Cells were co-incubated with bacteria for 2 hr in an anaerobic hood. Afterwards cells were washed in growth media without FBS but containing antibiotics. Cells were left to rest in 1 ml of THP1 condition media for 24 h. After 24 h incubation the supernatant was collected and spun down at 10,000 g for 3 min and 4° C. Samples were frozen at −80° C. until further use.
THP1 condition media: THp1 were seeded on T25 flask at density of 4×10^6/flask. Cells were treated in RPMI media (contain 2 mM L-glutamine without FBS) with 1 ug/ml LPS or LPS+5 mM ATP (ATP added 3 hours after LPS). Cells were left to rest for 24 hr. Thereafter Condition Media (CM) was collected by spinning down the cells at 250 g for 5 min and RT. Different CMs were used to treat HT29 Cells. A small aliquot was frozen at […] for ELISA. […]
On the technique in general: An ELISA detects its analyte on a solid surface through an enzyme-linked reagent.

Series [2] concerns MAP2. The experiment in a line: MAP2 gene expression in 451Lu cell line (qPCR). As to conditions: relative to the cell line only negative control. The protocol: Cells were plated in 12-well plates at density of 2×10^5 cells/well. After 24 h cells were treated with either DMSO or Vemurafenib (662005; EMD Millipore; VEMU; SKMEL28, SKMEL31, 451Lu, HT29 (1 μM) SKMEL2 (10 μM) or Azacytidine-C (A3656; Sigma Aldrich; AzaC; 5 μg/ml) or both drugs (VEMU+Aza) together, in presence of 10% bacteria supernatants or absence of it (YCFA+). Total RNA was extracted using the RNeasy mini kit (Qiagen, Manchester, UK) according to the manufacturer's instructions, and the RNA concentration was determined by spectrophotometer at 260/280 nm (NanoDrop ND-1000; Thermo Fisher Scientific, Loughborough). For mRNA expression analysis, cDNA was prepared from 2000 ng of total RNA using the High-Capacity cDNA reverse transcription kit (Thermo Fisher, Loughborough) according to the manufacturer's instructions. The reverse transcription reactions were performed in a thermocycler (Biometra, Germany) at 25° C. for 10 min, 37° C. for 120 min, and 85° C. for 5 min Resulting cDNA was amplified in duplicates by the SYBR-Green PCR assay, and products were detected on QuantStudio 6 flex real-time PCR machine (Applied Biosystems, UK) using a standardised profile (initial denaturation of 95° C. for 10 minutes, followed by 40 cycles of 10 seconds of denaturation at 95° C. and 30 seconds of annealing/extension at 65° C.). […]
For orientation: Quantitative PCR measures a nucleic acid by following its amplification.

Series [3] concerns HDAC. The experiment in a line: HDAC inhibition on whole HT-29 cells. The protocol:
Pure cultures of bacteria were grown anaerobically in YCFA+ broth until they reached their stationary growth phase. Cultures were centrifuged at 5,000×g for 5 minutes and the cell-free supernatant (CFS) was filtered using a […] (Millipore, UK). 1 mL aliquots of the CFS were stored at −80° C. until use. Sodium butyrate, hexanoic and valeric acid were obtained from Sigma Aldrich (UK) and suspensions were prepared in YCFA+ broth.
To investigate which metabolites were responsible for the strain-induced HDAC inhibition, different concentrations of hexanoic acid, valeric acid and sodium butyrate were measured for their HDAC inhibition on whole HT-29 cells and on HT-29 cell lysate.

In series [4] the test system is neuron specific enolase (NSE)/enolase 2. Briefly: Enolase 2 expression in SH-SY5Y cells (qPCR). As to conditions: 10% bacterial supernatants 17 h, vs YCFA+ culture control. The procedure: SH-SY5Y were plated in 6 well plates at a density of 0.5×10^6 cells. After 24 h, cells were treated in differentiation medium (growth medium containing 1% FBS) with 10% bacterial supernatants or YCFA+ for 17 h. Cells were collected, and total RNA was isolated according to the RNeasy mini kit protocol (Qiagen). cDNA was made using the High Capacity cDNA reverse transcription kit (Applied Biosystems). Gene expression was measured by qPCR. GAPDH was used as internal control. Fold change was calculated according to the 2^(−ΔΔct) method. Primer sets used are listed as SEQ ID NOs: 2, 3, 13 and 14.

Series [5] concerns SH-SY5Y cells. The protocol:
SH-SY5Y cells were plated at a seeding density of 10,000 cells/well, 24 hrs later cells were treated in 100 ul of 1% FBS growth media with different concentrations (express as percentage v/v) of cell-free bacterial supernatants from stationary phase cultures for 22 h. Thereafter 10 μl of MTT solution was added and cells were incubated in CO2 incubator for 4 h, at the end of this time 100 μl of isopropanol with 0.04 HCL was added to each well. The absorbance was measured at 560 nm wavelength and a reference wavelength of 655 nm. MTT assay kit was purchased from Merck Millipore (Cat n. CT01).

Series [6] deals with DRD2. The experiment in a line: DRD2 expression in SH-SY5Y cells. As to conditions: vs untreated cells. The protocol:
SH-SY5Y were plated in 10 cm petri dishes a density of 2×10^6 cells. After 24 h cells were treated in differentiation medium (growth medium containing 1% FBS without RA) with 10% bacteria supernatants or YCFA+, 10 uM RA, 200 uM hexanoic acid or 200 uM valproic acid, for 17 hrs. There after representative images were taken using phase contrast EVOS XL core microscope at 40×10.65 magnification. Cells were collected, and total RNA was isolated according to RNeasy mini kit protocol (Qiagen). cDNAs were made using the high capacity cDNA reverse transcription kit (Applied Biosystems). Gene expression was measured using qPCR. GAPDH was used as internal control. Fold change was calculated according to the 2^(−ΔΔct) method.
The inventors measured the change in DRD2 expression in neuroblastoma cells using the same method as described in Example 1.

As to Megasphaera massiliensis MRx0029, in series [1], the IL-8 secretion result is listed as “increased IL-8 secretion”. For the same substance, the MAP2 gene expression result in series [2] is “increased MAP2 gene expression”. Further, the “HDAC inhibition on whole HT-29 cells” value in series [3] is reported as “strong HDAC inhibition”. In addition, the “Enolase 2 expression” value in series [4] is recorded as “statistically-significant effect of suppressing”. The “reduction of cell viability” value in series [5] is “approximately 70%”. The cell viability result in series [5] (undifferentiated neuroblastoma cells, MRx0029 at 5% or 10%) is “significant, dose-dependent decrease in cell viability”. Moreover, in series [6], the “expression of DRD2” value was “significantly decreased the expression of DRD2”.

Values taken from US11419902B2, “Compositions comprising bacterial strains” (4D Pharma Research Limited, priority 2018, dated 2022).
